Laboratory results published in ChEMBL document CHEMBL1201862, “PubChem BioAssay data set” (2004).
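Dose response: 5 concentrations. Exposure: 48 h. Format: 96-well plates. Endpoint: linear interpolation; highest concentration if not reached. GI50 is the concentration that inhibits growth by half.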 Activity calls are given as the source filed them. Rule as the data show it: active = GI50 up to about 1.1 µM and inactive = higher.

Tests used:
Experiment in all cases: DTP human tumour cell line panel, 48 h
[1] = tested on: RXF 631
[2] = tested on: HOP-18
[3] = tested on: DMS-273
[4] = tested on: KM-20L2
[5] = tested on: DLD-1
[6] = tested on: XF498
[7] = tested on: LXFL 529
[8] = tested on: DMS-114

SMILES | GI50 [1] | GI50 [2] | GI50 [3] | GI50 [4] | GI50 [5] | GI50 [6] | GI50 [7] | GI50 [8]
OCC1OC(NO)C(O)C(O)C1O (centres undefined) | > 100 µM (inactive) | > 100 µM (inactive) | > 100 µM (inactive) | > 100 µM (inactive) | > 100 µM (inactive) | > 100 µM (inactive) | > 100 µM (inactive) | –
CCCCCCCCCCCCCP(=O)(OC)OC | 17.7 µM (inactive) | 18.1 µM (inactive) | 19.1 µM (inactive) | 26.8 µM (inactive) | 16.1 µM (inactive) | 17.9 µM (inactive) | 19.1 µM (inactive) | 21.6 µM (inactive)
CN/N=C(\C)c1c(O)cc(C)oc1=O | > 100 µM (inactive) | > 100 µM (inactive) | – | > 100 µM (inactive) | > 100 µM (inactive) | – | > 100 µM (inactive) | –
CCOC(=O)c1cc(/C=C/C(C)=C/C(=O)OC)n(C)c1C | > 100 µM (inactive) | – | > 100 µM (inactive) | 74 µM (inactive) | 67.8 µM (inactive) | 93.1 µM (inactive) | 91.6 µM (inactive) | –
O=C(O)CCN(CCCN(CCC(=O)O)CCC(=O)O)CCC(=O)O | > 100 µM (inactive) | > 100 µM (inactive) | > 100 µM (inactive) | > 100 µM (inactive) | > 100 µM (inactive) | > 100 µM (inactive) | > 100 µM (inactive) | > 100 µM (inactive)
C[Si](C)(C)CN1C(=O)c2ccccc2C1(O)c1ccccc1 (centres undefined) | 88.9 µM (inactive) | > 100 µM (inactive) | 56.6 µM (inactive) | > 100 µM (inactive) | > 100 µM (inactive) | 73.8 µM (inactive) | 93.1 µM (inactive) | 41.6 µM (inactive)
N#C/C(N)=N/c1ccccc1 | > 100 µM (inactive) | > 100 µM (inactive) | > 100 µM (inactive) | > 100 µM (inactive) | > 100 µM (inactive) | – | > 100 µM (inactive) | 16.9 µM (inactive)
CC(=O)c1ccc(NC(=O)COC(=O)c2cccc3c(=O)c4ccccc4[nH]c23)cc1 | 20.6 µM (inactive) | > 100 µM (inactive) | – | > 100 µM (inactive) | 54 µM (inactive) | 23.1 µM (inactive) | 21.9 µM (inactive) | 34.8 µM (inactive)
Cc1ccc2[nH]c(Sc3c([N+](=O)[O-])ncn3C)nc2c1 | 17.2 µM (inactive) | 17.5 µM (inactive) | 12.2 µM (inactive) | 25.6 µM (inactive) | 20.4 µM (inactive) | 0.586 µM (active) | > 10 µM (inactive) | 14.3 µM (inactive)
